The test system of data set [1] is platelet aggregation. As to the kind of experiment: Inhibition of platelet aggregation (collagen-induced, Born and Cross, platelet-rich plasma of healthy volunteers). The conditions noted are these: Homo sapiens, Platelet, 10 minutes preincubation at 37° C. In kind it is cell-based. The protocol: In order to do this, donor blood is taken from an anticubital vein and anticoagulated with trisodium citrate (final concentration 13 mM). The blood is centrifuged for 10 minutes at 170×g and the supernatant platelet-rich plasma (PRP) is removed. The remaining blood is vigorously centrifuged once more in order to obtain plasma. The PRP is diluted 1:10 with autologous plasma. 750 μl are incubated with 50 μl of physiological saline solution, 100 μl of test substance solution, 50 μl of ^14 C-sucrose (3,700 Bq) and 50 μl of ^3 H-BIBU 52 (final concentration: 5 nM) at ambient temperature for 20 minutes. In order to measure the non-specific binding, 5μl of BIBU 52 (final concentration: 30 μM) are used instead of the test substance. The samples are centrifuged for 20 seconds at 10,000×g and the supernatant is poured off. 100 μl thereof are measured in order to determine the free ligand. The pellet is dissolved in 500 μl of 0.2N NaOH, 450 μl are mixed with 2 ml of scintillator and 25 μl of 5N HCl and measured. The residual plasma remaining in the pellet is determined from the ^14 C-content and the bound ligand is determined from the ^3 H-measurement. After the non-specific binding has been deducted, the pellet activity is plotted against the concentration of the test substance and the concentration for 50% inhibition of binding is determined. 2. Antithrombotic activity The thrombocyte aggregation is measured using the method of Born and Cross (J. Physiol. 170: 397 (1964)) in platelet-rich plasma taken from healthy volunteers. To inhibit coagulation the blood is mixed with 3.14% sodium citrate in a volume ratio of 1:10. The pattern of the decrease in optical density of the platelet suspension is photometrically measured and recorded after the addition of the aggregation-triggering substance. The rate of aggregation is determined from the angle of inclination of the density curve. The point on the curve where there is maximum light transmittance is used to calculate the optical density. The concentration of collagen used is as small as possible but sufficient to produce an irreversible reaction curve. Standard commercial collagen produced by Hormonchemie of Munich is used. Before the addition of the collagen the plasma is incubated for 10 minutes with the substance at 37° C. From the concentration/activity curve an EC50 is determined, which describes the concentration giving a 50% change in the optical density in terms of the inhibition of aggregation.

The target of data set [2] is human thrombocytes. As to the kind of experiment: Competitive binding of ^3 H-BIBU 52/test substance to human thrombocytes. The note with it: human thrombocytes in plasma; ^3 H-BIBU 52 5 nM; ambient temperature, 20 minutes. The protocol: 1. Competitive binding of ^3 H-BIBU 52/test substance to human thrombocytes: […] Case 5/1093-FL), which replaces the ^125 I fibrinogen ligand known from the literature and various concentrations of the substance to be tested. The free and bound ligand is separated by centrifuging and quantified by scintillation counting. The inhibition of ^3 H-BIBU 52 binding by the test substance is determined from the measurements obtained. In order to do this, donor blood is taken from an anticubital vein and anticoagulated with trisodium citrate (final concentration 13 mM). The blood is centrifuged for 10 minutes at 170×g and the supernatant platelet-rich plasma (PRP) is removed. The remaining blood is vigorously centrifuged once more in order to obtain plasma. The PRP is diluted 1:10 with autologous plasma. 750 μl are incubated with 50 μl of physiological saline solution, 100 μl of test substance solution, 50 μl of ^14 C-sucrose (3,700 Bq) and 50 μl of ^3 H-BIBU 52 (final concentration: 5 nM) at ambient temperature for 20 minutes. In order to measure the non-specific binding, 5μl of BIBU 52 (final concentration: 30 μM) are used instead of the test substance. The samples are centrifuged for 20 seconds at 10,000×g and the supernatant is poured off. 100 μl thereof are measured in order to determine the free ligand. The pellet is dissolved in 500 μl of 0.2N NaOH, 450 μl are mixed with 2 ml of scintillator and 25 μl of 5N HCl and measured. The residual plasma remaining in the pellet is determined from the ^14 C-content and the bound ligand is determined from the ^3 H-measurement. After the non-specific binding has been deducted, the pellet activity is plotted against the concentration of the test substance and the concentration for 50% inhibition of binding is determined. 2. Antithrombotic activity

Data set [3] has as its system mice. As to the kind of experiment: Tolerability after intravenous administration to mice. The conditions noted are these: 30 mg/kg, three mice in each case. In kind it is in vivo.
The test system of data set [4] is collagen-induced thrombocyte aggregation. Kind of data set: Collagen-induced thrombocyte aggregation ex vivo after oral administration, Rhesus monkeys. In kind it is in vivo. The note with it: 1 mg/kg, collagen 2 μg/ml. The protocol: The inhibition of thrombocyte aggregation after oral administration of the test substance is determined ex vivo on Rhesus monkeys. Directly before the oral administration of the test substance suspended in Natrosol, a blood sample is taken from the cubital vein of the animals to provide a reference value. At specified times after the administration of the substance, fresh blood samples are taken and investigated as follows. The whole blood mixed with 3.14% sodium citrate in a ratio by volume of 1:10 is centrifuged at 200×g for 15 minutes. The supernatant, platelet-rich plasma, is carefully removed. From the sediment which is rich in erythrocytes, the platelet-poor plasma is obtained as supernatant,by centrifuging at 4000×g for 10 minutes. The thrombocyte aggregation triggered with collagen (Hormonchemie, Munich; 2 μg/ml final concentration in platelet-rich plasma) in these ex vivo samples is measured photometrically using the method of Born and Cross (J. Physiol. 170, 397 (1964)). The maximum light transmittance of the platelet-rich plasma, measured after collagen stimulation, is compared with the reference value in order to determine the inhibition of aggregation at the various times of blood sampling after the administration of the substance, relative to the reference value.

Structures can show the parent of a compound that is named as a salt.

These results are taken from patent US5442064A, “Carboxylic acid derivatives, pharmaceutical compositions containing these compounds and processes for preparing them” (Dr. Karl Thomae GmbH, priority 1992, dated 1995).

Usually EC50 stands for the concentration at which the effect is half-maximal. In general, IC50 refers to the point on the concentration scale where inhibition reaches its midpoint.

As to `Cl.Cl.N=C(N)c1ccc(N2CCN(C(=O)N[C@H]3CC[C@H](C(=O)O)CC3)CC2)cc1.O` [Example 2, 1-(4-Amidinophenyl)-4-[N-[trans-4-carboxycyclohexyl]aminocarbonyl]-piperazine-dihydrochloride-hydrate], in data set [1], the half-maximal effective concentration (EC50) was 40 nM. In data set [2], this molecule had an IC50 of 7.4 nM. In data set [3], the “tolerability (animals died)” value is listed as “no animals died”.
In data set [1], `NCc1ccc(N2CCN(C(=O)N[C@H]3CC[C@H](C(=O)O)CC3)CC2)cc1` [Example 3, 1-(4-Aminomethylphenyl)-4-[N-(trans-4-carboxycyclohexyl)-aminocarbonyl]-piperazine] showed an EC50 of 230 nM. In addition, the IC50 in data set [2] was 130 nM. Besides, the “tolerability (animals died)” value in data set [3] is on record as “no animals died”.
Taken in the same sequence, the figures for `Cl.Cl.N=C(N)c1ccc(N2CCN(C(=O)N[C@H]3CC[C@H](C(=O)O)CC3)CC2)nc1` [2(7), 1-(5-amidinopyrid-2-yl)-4-[N-(trans-4-carboxycyclohexyl)-aminocarbonyl]-piperazine-dihydrochloride] were 80 nM, 29 nM and “no animals died”.
Consider `COC(=O)[C@H]1CC[C@H](NC(=O)C2CCN(c3ccc(C(=N)N)cc3)CC2)CC1.Cl` [Example 1(24), 1-(4-amidinophenyl)-4-[N-[trans-4-(methoxycarbonyl)-cyclohexyl]-aminocarbonyl]-piperidine-hydrochloride], for which, in data set [1], a half-maximal response (EC50) required 220 nM. For the same molecule, the “inhibits the collagen-induced thrombocyte aggregation ex vivo (duration)” value in data set [4] is “more than 4 hours”. This molecule also gave an IC50 in data set [2] of 4400 nM.
Turning to `COC(=O)N=C(N)c1ccc(N2CCN(C(=O)N[C@H]3CC[C@H](C(=O)OC)CC3)CC2)cc1` [Example 5, 1-[4-(N-Methoxycarbonyl-amidinc)-phenyl]-4-[N-[trans-4-(methoxycarbonyl)-cyclohexyl]-aminocarbonyl]-piperazine], the “tolerability (animals died)” value in data set [3] was “no animals died”.
For the molecule `N=C(N)c1ccc(N2CCC(C(=O)N(CCCc3ccccc3)[C@H]3CC[C@H](C(=O)O)CC3)CC2)cc1` [3(25), 1-(4-amidinophenyl)-4-[N-(trans-4-carboxycyclohexyl)-N-(3-phenylpropyl)-aminocarbonyl]-piperidine], a half-maximal effect in data set [1] (EC50) was put at 52 nM. Moreover, the IC50 in data set [2] was determined as 4 nM.
On to `CN(C(=O)N1CCN(c2ccc(C(=N)N)cn2)CC1)[C@H]1CC[C@H](C(=O)O)CC1.Cl.Cl` [2(8), 1-(5-amidinopyrid-2-yl)-4-[N-(trans-4-carboxycyclohexyl)-N-methyl-aminocarbonyl]-piperazine-dihydrochloride], for which a half-maximal response in data set [1] (EC50) required 60 nM. Moreover, the IC50 in data set [2] is 27 nM. Further, in data set [3], the “tolerability (animals died)” value is reported as “no animals died”.
In data set [1], `N=C(N)c1ccc(N2CCC(C(=O)N[C@H]3CC[C@H](C(=O)O)CC3)CC2)cc1` [3(15), 1-(4-amidinophenyl)-4-[N-(trans-4-carboxycyclo-hexyl)-aminocarbonyl]-piperidine] displayed an EC50 of 30 nM. Besides, the IC50 in data set [2] was determined as 5.7 nM.
In data set [1], `CN(C(=O)N1CCN(c2ccc(C(=N)N)cc2)CC1)[C@H]1CC[C@H](C(=O)OC2CCCCC2)CC1` [7(2), 1-(4-amidinophenyl)-4-[N-[trans-4-(cyclohexyloxy-carbonyl)-cyclohexyl]-N-methyl-aminocarbonyl]-piperazine-dihydrochloride] registered an EC50 of 360 nM. Also, in data set [2], the IC50 came out at 2100 nM.
